Patent publication US20200254110A1, “LIGAND-CONJUGATES AND METHODS FOR TARGETED RECEPTOR-MEDIATED CELLULAR UPTAKE” (priority 2017, published 2020)
Ends that are not written are not given here.

Assays:
PAR2 = target: T1, PAR2 (Homo sapiens, UniProt P55085); settings: PAR2 agonist peptide, reference [1]; cited from earlier work
T1 sequence (P55085 26-397): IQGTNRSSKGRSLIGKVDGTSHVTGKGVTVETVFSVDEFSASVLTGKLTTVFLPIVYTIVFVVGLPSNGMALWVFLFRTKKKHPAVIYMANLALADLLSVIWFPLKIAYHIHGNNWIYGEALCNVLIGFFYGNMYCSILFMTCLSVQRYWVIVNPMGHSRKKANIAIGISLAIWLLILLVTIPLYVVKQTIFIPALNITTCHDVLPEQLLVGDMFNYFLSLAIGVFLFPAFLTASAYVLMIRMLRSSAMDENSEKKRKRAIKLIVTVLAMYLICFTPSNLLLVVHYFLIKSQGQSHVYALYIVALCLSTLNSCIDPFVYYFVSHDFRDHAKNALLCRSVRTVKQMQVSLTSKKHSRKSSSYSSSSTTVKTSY

[1] = target: T2, PAR2-expressing HEK293 (human embryonic kidney) cells (Homo sapiens, UniProt P55085); test: Intracellular Ca2+ mobilization assay (Indo-1 AM, flow cytometry); type: cell-based; settings: for shift in relative fluorescence intensity (RFI) of the cells relative to the untreated sample (PAR2 activation, intracellular calcium mobilization): HEK293 cells preincubated with Indo-1 AM, P6 100-200 μM, P8 200-400 μM, flow cytometry; for relative potential of PAR2 activation (rank order): HEK293 cells, calcium mobilization, FIG. 4 A-C
T2 construct: PAR2-expressing HEK293 (human embryonic kidney) cells; endogenous in cells; host or cells: HEK293
T2 sequence (P55085 26-397): T1 sequence (P55085 26-397)
Description: To test whether the modified PAR ligands such as the synthesis intermediates as well as the final compound P8 are capable of binding and activating PAR in vitro a calcium-based cell activation assay was established on the basis of the assay for measurement of intracellular Ca^2+ mobilization described in Kelm et al., J. Exp. Med. 195 (2002), 1207-1213, which can be used directly on PAR, i.e. PAR2 expressing cells.
SOP: Measurement of Intracellular Ca^2+ Mobilization • Thaw 1 aliquot of frozen (from liquid N2) HEK293 cells (careful at RT) • Provide 10 mL of DMEM (Dulbecco's Modified Eagle Medium, phenol red free!) containing 10% FCS, antibiotics (50 μg/mL gentamicin final conc.) on a 10 cm cell culture plate • Add cells to the plate and grow them at 37° C., 8% CO2 until 60-70% confluency (one cell layer on the plate) • Wash the cells 3× with 10 mM PBS (phosphate buffer saline), pH 7.4 • Add 10 mL of fresh DMEM (phenol red free!) and carefully resuspend the cells • Count the cells employing a flow cytometer and dilute to 3×10^5 cells/mL in DMEM (phenol red free!) • Pipette 1 ml of the diluted cell suspension in each well of a 24-well cell culture plate • Add 30 μL of Pluronic® F-127 (0.01% (v/v) final conc., P2443 Sigma-Aldrich) and 15 μL of Indo 1-AM ester in DMSO (15 μM final conc., I3261 Sigma-Aldrich) to the cell suspension • Incubate for 45 min at 37° C., 8% CO2, in the dark • Henceforward keep the cells in the dark • Remove cells from the culture plate and subsequently wash 1× with 15 mL of HEPES buffer (100 mM HEPES, pH 7.4) to remove excess Indo 1-AM ester and resuspend cells in 1 mL HEPES buffer (100 mM HEPES, pH 7.4) • Add 10 μL propidium iodide (PI: final conc. 100 ng/mL, P4864 Sigma-Aldrich) to the cell suspension and immediately perform flow cytometry analysis • Perform flow cytometry analysis using the appropriate laser/filter sets (CyFlow® Cube 8 Sysmex):
Indo 1-AM: λexcitation,max 345 nm, λemission,max 400 nm (Ca^2+ bound), λemission,max 475 nm (Ca^2+ free), (excitation: UV-LED, emission: FL4 channel, 455/50 nm)
PI: λexcitation,max 535 nm (DNA-bound), λemission,max 617 nm (DNA-bound), (excitation: 488 nm laser, emission: FL2 channel, 590/50 nm) • For PAR-2 activation, add the appropriate amount of activator (SLIGRL: 50 μM final conc., trypsin: 40 Units (TRYPSEQM-RO Roche), P6 or P8: 100-200 μM or 200-400 μM respectively) to the cell suspension (containing 15 nmol Indo 1-AM ester) and immediately perform flow cytometry analysis • Determine the decrease in relative fluorescence intensity (due to the shift from unbound towards calcium bound Indo 1-AM complexes) after PAR mediated activation of HEK293 cells
As described above, activation of PARs leads to the initiation of a variety of signal transduction pathways and downstream signaling. One consequence of PAR activation presents the intracellular calcium mobilization from storage reservoirs of the endoplasmic reticulum (ER) and mitochondria into the cytosol. […] In the present assay the Indo-1 AM fluorophore was used, which is an esterified derivative of Indo-1 and thus able to penetrate the cell membrane. Upon uptake into the cytoplasm, present esterases will transfer the ester into the carboxylate, which is then trapped in the cell due to its obtained negative charges. A shift in Indo-1 AM emission from 480 nm (calcium free Indo-1 AM) to 400 nm (calcium bound Indo-1 AM) can be detected employing a flow cytometer, when bound to free calcium. […]

[2] = test system: PAR2 expressing keratinocytes (HaCaT); test: PAR2 mediated endocytosis assay (fluorescence microscopy); type: cell-based, human; settings: keratinocytes serum-starved 24 h, 2 h incubation, FIG. 5
Protocol: SOP: PAR2 Mediated Endocytosis Assay • Culture HaCaT (cultured human keratinocytes) cells in DMEM (Dulbecco's Modified Eagle Medium, phenol red free!) supplemented with 10% (w/v) FCS and antibiotics (gentamicin: 50 μg/mL final conc.) in a 10 cm cell culture plate at a confluency (one cell layer on the plate) of 60-70% • Count the cells and dilute to 1-2×10^4 cells/mL in DMEM (phenol red free!) • Incubate 1 mL of the diluted cell suspension in each well of a 24-well cell culture plate supplemented with 10% (w/v) FCS (containing gentamicin at a final conc. of 50 μg/mL) on a glass coverslip for 24 h at 37° C., 5% CO2 • Discard the supernatant and carefully wash the cells 3 times with 500 μL DMEM (phenol red free, without FCS!) • Incubate the cells for 24 h at 37° C., 5% CO2 (DMEM without serum addition, phenol red free only!) • Add CaCl2 solution to reach a final concentration of 1.5 mM in the medium when using Ca^2+-free medium (induction of cell differentiation) • For PAR2 activation […]
An endocytosis assay was used to test whether the PAR ligand-conjugate, i.e. PAR2 agonist P8 enhances the uptake of IONPs into PAR, here PAR2 expressing keratinocytes, when immobilized to the surface of the IONP. […] After the incubation, cells were washed thoroughly for several times and internalization of the modified IONPs was analyzed employing fluorescent microscopy (FIG. 5, lower right corner). […]

| Substance | effectiveness relative to SLIGRL-NH2 (PAR2) | shift in relative fluorescence intensity (RFI) of the cells relative to the untreated sample (PAR2 activation, intracellular calcium mobilization) [1] | relative potential of PAR2 activation (rank order) [1] | uptake (internalization) into cultured keratinocytes [2] |
| --- | --- | --- | --- | --- |
| 2-furoyl(1)L(2)IG(4)RL(6)-NH2 | 10-20 fold |  |  |  |
| Fam5/6-Lysine-DEG-SLIGRL [P8] |  | induced a shift in relative fluorescence intensity | decreased from SLIGRL-NH2, to P6 and further to P8 |  |
| NH2-DEG-SLIGRL [P6] |  | induced a shift in relative fluorescence intensity | decreased from SLIGRL-NH2, to P6 and further to P8 |  |
| P8 modified IONPs (SLIGRL; not fully specified (C-terminus); also: P8 modified IONPs (on iron oxide nanoparticles)) |  |  |  | successful uptake |
| SerLeuIleGlyArgLeu-NH2 (SLIGRL-NH2) [PAR2 agonist hexapeptide, native tethered ligand of rodent PAR2, reference compound] |  |  | decreased from SLIGRL-NH2, to P6 and further to P8 |  |
